Measurements as given in patent US20110160052A1, “Active Compound Combinations” (Bayer CropScience AG, priority 2007, published 2011).

Tests used:
Format in all cases: in vivo
Nilaparvata lugens = Nilaparvata lugens test (sprayed rice plants); settings: mortality of hopper larvae on rice
Description: (§1) Solvent: 7 parts by weight of dimethylformamide Emulsifier: 2 parts by weight of alkylaryl polyglycolether
(§2) To produce a suitable preparation of active compound, 1 part by weight of active compound is mixed with the stated amount of solvent and emulsifier, and the concentrate is diluted with emulsifier-containing water to the desired concentration.
Rice plants (Oryza sativa) are treated by being sprayed with the preparation of the active compound at the desired concentration and are infested with larvae of the Brown plant hopper (Nilaparvata lugens) as long as the leaves are still moist.
After the specified period of time, the mortality in % is determined. 100% means that all the hopper larvae have been killed; 0% means that none of the hopper larvae have been killed.

[1] = system: Blumeria graminis f sp. hordei; assay: Blumeria test (barley)/SAR 5d; settings: 1000 ppm, inoculated 5 days after spraying, evaluated 7 days after inoculation
Description: Solvent: 50 parts by weight of n,n-dimethylacetamid Emulsifier: 1 part by weight of alkylaryl polyglycol ether
To produce a suitable preparation of active compound, 1 part by weight of active compound or active compound combination is mixed with the stated amounts of solvent and emulsifier, and the concentrate is diluted with water to the desired concentration.
To test for systemic activated resistance, young plants are sprayed with the preparation of active compound or active compound combination at the stated rate of application. After the spray coating has dried on, the plants are placed in a greenhouse at a temperature of approximately 18° C. and a relative atmospheric humidity of approximately 80%.
5 days after spraying, the plants are dusted with spores of Blumeria graminis f sp. hordei. The plants then remain in a greenhouse at a temperature of approximately 18° C. and a relative atmospheric humidity of approximately 80% to promote the development of mildew pustules.
The test is evaluated 7 days after the inoculation, 1. and 2. leaf separated. 0% means an efficacy with corresponds to that of the control while an efficacy of 100% means that no disease is observed.

Spodoptera frugiperda = Spodoptera frugiperda test (sprayed cabbage leaves); settings: mortality of caterpillars on cabbage leaves
Description: as §1, §2
Cabbage leaves (Brassica oleracea) are treated by being sprayed into the preparation of the active compound of the desired concentration and are infested with larvae of the fall army worm (Spodoptera frugiperda) as long as the leaves are still moist.
After the specified period of time, the mortality in % is determined. 100% means that all the caterpillars have been killed; 0% means that none of the caterpillars have been killed.

Phaedon cochleariae = Phaedon cochleariae test (sprayed cabbage leaves); settings: mortality of beetle larvae on cabbage leaves
Description: as §1, §2
Cabbage leaves (Brassica oleracea) are treated by being sprayed with the preparation of the active compound at the desired concentration and are infested with larvae of the mustard beetle (Phaedon cochleariae) as long as the leaves are still moist.
After the specified period of time, the mortality in % is determined. 100% means that all the beetle larvae have been killed; 0% means that none of the beetle larvae have been killed.

SMILES: CC[S+]([O-])c1c(C#N)nn(-c2c(Cl)cc(C(F)(F)F)cc2Cl)c1N (stereo not shown) [Ethiprole, ethiprole]
- Efficacy in % after 3d (Nilaparvata lugens; 0.16 ppm): 0%
- Efficacy in % ([1]; 1st leaf): 22%
- Efficacy in % ([1]; 2nd leaf): 22%

SMILES: N#Cc1nn(-c2c(Cl)cc(C(F)(F)F)cc2Cl)c(N)c1[S+]([O-])C(F)(F)F (stereo not shown) [Fipronil, fipronil]
- Efficacy in % after 6d (Spodoptera frugiperda; 8 ppm): 65%
- Efficacy in % after 6d (Phaedon cochleariae; 0.032 ppm): 0%
- Efficacy in % after 3d (Nilaparvata lugens; 0.032 ppm): 0%
- Efficacy in % after 3d (Nilaparvata lugens; 20 ppm): 70%

SMILES: N#Cc1ccccc1NC(=O)c1snc(Cl)c1Cl [Isotianil, 3,4-dichloro-N-(2-cyanophenyl)-5-isothiazolecarboxamide]
- Efficacy in % after 6d (Spodoptera frugiperda; 200 ppm): 0%

SMILES: CN/C(=N\[N+](=O)[O-])NCc1cnc(Cl)s1 [Clothianidin, clothianidin]
- Efficacy in % after 6d (Spodoptera frugiperda; 8 ppm): 25%
- Efficacy in % after 6d (Phaedon cochleariae; 0.16 ppm): 0%
- Efficacy in % after 3d (Nilaparvata lugens; 0.032 ppm): 55%
- Efficacy in % after 3d (Nilaparvata lugens; 0.8 ppm): 70%

SMILES: N#C/N=C1\SCCN1Cc1ccc(Cl)nc1 [Thiacloprid, thiacloprid]
- Efficacy in % after 3d (Nilaparvata lugens; 4 ppm): 0%
